Measurements from PMC5400620, “Preclinical therapeutic efficacy of a novel blood-brain barrier-penetrant dual PI3K/mTOR inhibitor with preferential response in PI3K/PTEN mutant glioma” (Oncotarget, 2017).
Read-outs that look alike come from different tables or passages of the source.

Tests used:
[1] = target: p110γ (Homo sapiens, UniProt P48736); test: class I PI3K HTRF assay, p110γ; assay type: biochemical
Procedure: (§1) DS7423 inhibits PI3K/mTOR activity likely binding to the ATP binding cleft of these enzymes and was tested against class I PI3K and other kinases using an HTRF assay format and direct measurement of substrate phosphorylation, respectively.

[2] = pharmacokinetic study in mice, plasma and brain concentrations by LC-MS/MS; assay type: in vivo, nude mice
Procedure: We studied the plasma concentration-time profile of DS following a single PO administration (6 mg/kg) in mice (Figure 1). Plasma concentrations remained generally constant and higher than 2 μmol/L up to 6 hours after treatment. The brain-to-plasma ratio of total concentrations remained unchanged and was approximately 0.1 between 1 and 6 hours after treatment (Figure 1A and 1B). Both plasma and brain DS concentrations decreased at 24 hours after treatment.
Figure 1 A. and B. Plasma and brain concentration-time profile of DS7423 following a single PO administration (6 mg/kg) to nude mice. C. Western blot of mouse brains probed with antibodies against pAkt (Ser473) and pS6 (Ser235/236) in a time profile similar to that shown in A and B. Results are presented as the mean ± SE of six animals in each group.
Mice were implanted with U87 cells intracranially as described previously. Twenty-one days after injection of the tumor cells,mice were randomized into groups. Mice were given a 6 mg/kg oral (PO) dose of DS. Blood samples of approximately 0.15 mL were collected from mice (n = 4 mice per time point) by retro-orbital bleeding in tubes containing K2EDTA as the anticoagulant pre-dose and at 2, 4, 6, and 24 hours post-dose. Plasma was collected and stored at −80°C until analysis. DS concentrations were determined by liquid chromatography-tandem mass spectrometry (LC-MS/MS) following plasma protein precipitation with acetonitrile and injection of the supernatant onto a TSK-GEL ODS-100V column (150 mm × 2 mm, 5 μm particle size). A Shimadzu 10A system (Shimadzu Corp., Kyoto, Japan) coupled with an AB Sciex API4000 triple-quadrupole mass spectrometer (Applied Biosystems, Foster City, CA) was used for the LC-MS/MS assay. […] DS and its internal standard ([^2H8]DS) were analyzed in the multiple reaction monitoring mode using the mass transitions of m/z 521→479 and 529→487, respectively. The lower and upper limits of quantitation were 2 and 5000-ng/mL10 μmol/L, respectively. […] For DS quantitation, mouse brains were homogenized in 3 volumes of 50% acetonitrile. […]

[3] = target: p110δ (Homo sapiens, UniProt O00329); test: class I PI3K HTRF assay, p110δ; assay type: biochemical
p110δ, sequence (O00329 whole entry): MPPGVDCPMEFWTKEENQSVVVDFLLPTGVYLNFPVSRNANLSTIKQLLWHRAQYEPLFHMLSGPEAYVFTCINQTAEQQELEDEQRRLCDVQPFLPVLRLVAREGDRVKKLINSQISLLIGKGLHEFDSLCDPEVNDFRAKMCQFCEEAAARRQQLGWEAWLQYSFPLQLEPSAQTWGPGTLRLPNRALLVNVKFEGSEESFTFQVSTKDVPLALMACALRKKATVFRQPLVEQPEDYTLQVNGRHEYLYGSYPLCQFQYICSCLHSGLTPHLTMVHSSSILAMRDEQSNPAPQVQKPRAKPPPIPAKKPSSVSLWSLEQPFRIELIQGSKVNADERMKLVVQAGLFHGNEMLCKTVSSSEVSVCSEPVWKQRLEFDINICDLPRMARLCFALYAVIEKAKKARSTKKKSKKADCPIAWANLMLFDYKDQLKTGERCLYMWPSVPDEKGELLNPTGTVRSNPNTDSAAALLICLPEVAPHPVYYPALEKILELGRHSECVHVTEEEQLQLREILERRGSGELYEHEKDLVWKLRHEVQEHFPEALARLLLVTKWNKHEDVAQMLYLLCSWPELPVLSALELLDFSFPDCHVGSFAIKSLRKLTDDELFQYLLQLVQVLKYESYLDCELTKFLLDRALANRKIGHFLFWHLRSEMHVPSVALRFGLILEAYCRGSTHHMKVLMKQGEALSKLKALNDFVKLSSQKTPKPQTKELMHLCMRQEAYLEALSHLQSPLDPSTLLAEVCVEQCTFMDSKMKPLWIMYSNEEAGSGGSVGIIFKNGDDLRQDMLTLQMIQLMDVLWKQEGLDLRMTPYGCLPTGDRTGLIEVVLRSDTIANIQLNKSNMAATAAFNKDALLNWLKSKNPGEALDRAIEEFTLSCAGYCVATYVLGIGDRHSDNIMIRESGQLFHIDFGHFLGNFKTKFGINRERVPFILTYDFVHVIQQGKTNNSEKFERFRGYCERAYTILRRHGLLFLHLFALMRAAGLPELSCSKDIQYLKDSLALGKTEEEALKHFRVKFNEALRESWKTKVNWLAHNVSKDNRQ
p110δ, sequence (P27986 whole entry partner): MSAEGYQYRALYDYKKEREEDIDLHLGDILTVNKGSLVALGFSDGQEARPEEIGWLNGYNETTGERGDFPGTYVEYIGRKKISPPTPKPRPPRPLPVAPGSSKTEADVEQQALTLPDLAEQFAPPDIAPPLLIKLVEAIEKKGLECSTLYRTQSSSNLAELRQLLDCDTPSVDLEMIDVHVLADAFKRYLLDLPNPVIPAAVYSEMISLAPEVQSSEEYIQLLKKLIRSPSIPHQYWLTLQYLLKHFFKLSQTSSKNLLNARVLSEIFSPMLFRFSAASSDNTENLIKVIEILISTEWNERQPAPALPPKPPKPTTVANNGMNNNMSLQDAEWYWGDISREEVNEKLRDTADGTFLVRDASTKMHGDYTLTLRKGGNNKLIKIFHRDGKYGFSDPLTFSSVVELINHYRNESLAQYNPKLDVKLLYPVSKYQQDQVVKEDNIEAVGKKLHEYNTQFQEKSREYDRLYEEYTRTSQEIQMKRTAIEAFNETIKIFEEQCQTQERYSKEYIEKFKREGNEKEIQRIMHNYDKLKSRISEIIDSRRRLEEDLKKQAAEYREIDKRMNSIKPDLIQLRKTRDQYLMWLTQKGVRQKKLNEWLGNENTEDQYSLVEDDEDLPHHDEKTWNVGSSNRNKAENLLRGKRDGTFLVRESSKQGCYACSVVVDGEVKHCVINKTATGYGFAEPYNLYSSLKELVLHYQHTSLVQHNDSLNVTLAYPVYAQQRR
Procedure: as §1

[4] = target: p110α (Homo sapiens, UniProt P42336); test: class I PI3K HTRF assay, p110α; assay type: biochemical
p110α, sequence (P42336 whole entry): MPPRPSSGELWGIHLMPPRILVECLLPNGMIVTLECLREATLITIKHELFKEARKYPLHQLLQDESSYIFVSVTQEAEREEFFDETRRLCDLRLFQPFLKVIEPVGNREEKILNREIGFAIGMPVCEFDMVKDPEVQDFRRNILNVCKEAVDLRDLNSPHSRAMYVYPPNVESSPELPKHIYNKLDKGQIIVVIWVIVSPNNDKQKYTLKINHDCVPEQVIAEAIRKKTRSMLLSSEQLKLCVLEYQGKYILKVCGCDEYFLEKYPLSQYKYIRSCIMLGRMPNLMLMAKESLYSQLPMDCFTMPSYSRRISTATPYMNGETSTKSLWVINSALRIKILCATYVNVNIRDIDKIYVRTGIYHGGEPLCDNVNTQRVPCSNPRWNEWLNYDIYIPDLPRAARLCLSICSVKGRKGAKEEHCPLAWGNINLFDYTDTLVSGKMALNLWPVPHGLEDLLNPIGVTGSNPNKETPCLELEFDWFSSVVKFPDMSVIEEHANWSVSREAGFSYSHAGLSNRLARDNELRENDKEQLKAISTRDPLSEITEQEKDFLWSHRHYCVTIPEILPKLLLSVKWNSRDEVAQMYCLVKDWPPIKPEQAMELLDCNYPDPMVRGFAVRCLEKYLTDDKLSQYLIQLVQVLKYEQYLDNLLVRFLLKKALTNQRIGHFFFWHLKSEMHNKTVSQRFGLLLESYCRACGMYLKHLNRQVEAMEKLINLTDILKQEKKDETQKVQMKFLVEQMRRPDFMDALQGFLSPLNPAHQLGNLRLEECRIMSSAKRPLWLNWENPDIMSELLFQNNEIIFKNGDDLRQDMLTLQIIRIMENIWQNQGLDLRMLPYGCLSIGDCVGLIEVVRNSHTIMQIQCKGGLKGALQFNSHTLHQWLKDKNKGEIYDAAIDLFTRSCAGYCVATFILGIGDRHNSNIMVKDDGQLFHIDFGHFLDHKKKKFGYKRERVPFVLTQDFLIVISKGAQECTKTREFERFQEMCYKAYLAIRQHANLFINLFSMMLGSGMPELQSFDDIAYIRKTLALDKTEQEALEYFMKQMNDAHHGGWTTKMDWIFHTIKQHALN
p110α, sequence (P27986 whole entry partner): as the sequence (P27986 whole entry partner) above
Procedure: as §1

[5] = system: glioma cell lines and GICs; test: CellTiter-Blue cell viability assay, 72 hours; assay type: cell-based; details: Homo sapiens
Procedure: To determine the cytotoxicity of DS in GBM cells and GICs in vitro, we used a colorimetric […] assay. […] To investigate the role of PI3K/PTEN, we expressed PTEN in PTEN-mutant U87 glioma cells.
A panel of GIC lines was treated with various concentrations of DS. Cells were treated with increasing concentrations of DS in triplicate wells for 72 hours, and cell viability was assessed by a CellTiter-Blue assay. The results shown are from a single experiment with three independent replicates. The graph depicts cell viability at 72 hours. Cell viability in the vehicle control was considered to be 100%.
Nine well characterized GBM cell lines and 22 patient-derived GIC lines (provided by Drs. Frederick. F. Lang and Erik. P. Sulman, Brain Tumor center, M. D. Anderson Cancer Center) with various P53, PIK3CA, and PTEN statuses were used for this study. GBM cells were maintained as monolayer cultures and GICs were cultured as GBM neurospheres in DMEM/F12 medium containing B27 supplement (Invitrogen, Grand Island, NY) and basic fibroblast growth factor, and epidermal growth factor (20 ng/ml each).
The antiproliferative effect of DS on cells growing in culture was determined using the CellTiter-Blue (Promega, Madison, WI) viability assay. […]

[6] = target: mixed lineage kinase 1 (MLK1) (Homo sapiens, UniProt P80192); test: kinase panel, direct measurement of substrate phosphorylation, MLK1; assay type: biochemical; details: panel of 227 kinases; test concentration not given
mixed lineage kinase 1 (MLK1), sequence (P80192 whole entry): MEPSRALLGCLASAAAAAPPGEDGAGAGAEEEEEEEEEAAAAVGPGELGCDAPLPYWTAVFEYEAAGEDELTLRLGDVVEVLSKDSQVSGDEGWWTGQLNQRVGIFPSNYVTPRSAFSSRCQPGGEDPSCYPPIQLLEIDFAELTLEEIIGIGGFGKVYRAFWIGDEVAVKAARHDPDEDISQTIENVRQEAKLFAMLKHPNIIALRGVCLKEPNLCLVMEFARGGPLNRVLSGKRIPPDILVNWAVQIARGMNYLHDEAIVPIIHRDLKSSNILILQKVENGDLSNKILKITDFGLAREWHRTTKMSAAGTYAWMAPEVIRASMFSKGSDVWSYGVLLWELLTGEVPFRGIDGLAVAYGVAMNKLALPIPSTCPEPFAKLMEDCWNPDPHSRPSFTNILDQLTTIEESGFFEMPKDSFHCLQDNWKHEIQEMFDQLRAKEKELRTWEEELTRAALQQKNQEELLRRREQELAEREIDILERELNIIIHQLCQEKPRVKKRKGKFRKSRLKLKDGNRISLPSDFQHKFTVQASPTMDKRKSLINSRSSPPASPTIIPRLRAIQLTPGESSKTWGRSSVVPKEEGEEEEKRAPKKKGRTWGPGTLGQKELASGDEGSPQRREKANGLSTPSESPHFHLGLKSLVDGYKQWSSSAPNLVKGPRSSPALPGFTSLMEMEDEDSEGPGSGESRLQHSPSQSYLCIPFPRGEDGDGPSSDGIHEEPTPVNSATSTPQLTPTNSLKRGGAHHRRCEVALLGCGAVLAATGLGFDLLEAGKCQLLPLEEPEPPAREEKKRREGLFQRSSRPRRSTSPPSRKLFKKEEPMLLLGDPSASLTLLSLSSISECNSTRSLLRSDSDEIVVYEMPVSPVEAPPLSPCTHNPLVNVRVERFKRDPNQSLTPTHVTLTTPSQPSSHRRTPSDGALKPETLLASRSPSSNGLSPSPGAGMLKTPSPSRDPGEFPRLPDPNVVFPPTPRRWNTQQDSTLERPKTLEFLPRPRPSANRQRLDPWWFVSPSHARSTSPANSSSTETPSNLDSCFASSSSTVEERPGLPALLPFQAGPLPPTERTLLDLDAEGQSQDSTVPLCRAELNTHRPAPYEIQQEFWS
Procedure: as §1

[7] = system: glioma cell lines U87 and U251; test: cell viability with DS, TMZ and the combination; assay type: cell-based; details: Homo sapiens, U-251, TMZ 200 μM, DS 200 nM, alone or combined
Procedure: To investigate the ability of DS to modify the response of glioma cells to TMZ treatment, we evaluated the effects of TMZ (200 μM) alone, DS (200 nM) alone, and a combination of both TMZ and DS on the viability of the glioma cell lines U87 and U251 (Figure 5A).
The antiproliferative effect of DS on cells growing in culture was determined using the CellTiter-Blue (Promega, Madison, WI) viability assay. The mean drug concentration required to inhibit cell proliferation by 50% (IC50) compared with vehicle-treated controls was calculated using CalcuSyn Version 2.0 software (Great ShelfordCambridge, United Kingdom).

[8] = system: U87 GFP-LC3 cells; test: GFP-LC3 puncta detection (autophagy); assay type: cell-based, human; details: TMZ 125 μM, DS 100 nM, control 2%
Source text: To investigate the effects of DS, TMZ, or the TMZ/DS combination on autophagy in glioma cells, we transfected cells with GFP-LC3 constructs in addition to various drug treatment and control treatment regimens and examined the accumulation of punctate GFP-LC3 structures using fluorescence microscopy. During autophagy, LC3-II relocalizes to the autophagosomal membranes. Thus, the accumulation of GFP-LC3 puncta provides an effective way to detect autophagosomes. In control cells, GFP-LC3 punctate structures were not detected, but large numbers of GFP-LC3 punctate structures were found in cells treated with DS or TMZ (Figure 5C). […] Strikingly, the combination of DS and TMZ further induced autophagy in up to 50% of U87 cells.
U87 GFP-LC3 cells were analyzed by using a fluorescence microscope, and the percentage of cells displaying GFP-LC3-positive puncta was quantified by counting 5 random fields in 3 independent experiments.

[9] = system: panel of 227 kinases; test: representative panel of 227 kinases in biochemical assays; details: greater than 50% inhibition only against 2 other kinases
Procedure: as §1

p110γ, sequence (P48736 whole entry): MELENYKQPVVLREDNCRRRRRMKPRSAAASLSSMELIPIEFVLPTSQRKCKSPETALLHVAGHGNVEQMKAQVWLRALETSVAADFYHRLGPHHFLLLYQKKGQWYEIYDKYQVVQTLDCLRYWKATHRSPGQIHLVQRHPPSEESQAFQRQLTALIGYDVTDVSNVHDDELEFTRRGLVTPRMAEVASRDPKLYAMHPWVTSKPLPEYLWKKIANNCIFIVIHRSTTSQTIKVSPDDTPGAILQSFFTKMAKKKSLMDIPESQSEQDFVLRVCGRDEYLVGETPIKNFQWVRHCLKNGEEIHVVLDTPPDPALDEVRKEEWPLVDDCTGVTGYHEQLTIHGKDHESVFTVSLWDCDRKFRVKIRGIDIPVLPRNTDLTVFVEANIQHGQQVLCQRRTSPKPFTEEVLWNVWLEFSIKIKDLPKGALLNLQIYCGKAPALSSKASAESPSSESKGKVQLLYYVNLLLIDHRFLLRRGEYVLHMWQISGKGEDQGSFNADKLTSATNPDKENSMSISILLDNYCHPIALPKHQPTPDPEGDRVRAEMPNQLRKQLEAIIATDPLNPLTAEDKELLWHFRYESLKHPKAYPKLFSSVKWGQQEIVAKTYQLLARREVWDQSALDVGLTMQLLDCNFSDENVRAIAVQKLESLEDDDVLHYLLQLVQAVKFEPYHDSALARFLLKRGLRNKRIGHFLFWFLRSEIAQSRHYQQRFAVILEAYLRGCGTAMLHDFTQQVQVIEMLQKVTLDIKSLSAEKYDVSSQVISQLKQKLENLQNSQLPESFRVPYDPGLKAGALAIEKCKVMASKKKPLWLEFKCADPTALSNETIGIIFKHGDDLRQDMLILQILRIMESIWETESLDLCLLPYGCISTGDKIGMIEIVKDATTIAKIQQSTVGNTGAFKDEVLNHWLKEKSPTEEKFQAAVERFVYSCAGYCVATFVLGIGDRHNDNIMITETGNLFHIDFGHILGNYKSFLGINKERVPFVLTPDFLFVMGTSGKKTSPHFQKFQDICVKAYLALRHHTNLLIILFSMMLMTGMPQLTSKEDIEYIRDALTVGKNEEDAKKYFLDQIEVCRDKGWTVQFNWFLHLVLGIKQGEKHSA

## CC(=O)N1CCN(c2nc3c(N4CCOCC4)nc(-c4cnc(N)nc4)nc3n2CC(F)(F)F)C[C@H]1C [DS, 1-{(2R)-4-[2-(2-Aminopyrimidin-5-yl)-6-(morpholin-4-yl)-9-(2,2,2-trifluoroethyl)-9H-purin-8-yl]-2-methylpiperazin-1-yl}ethan-1-one]
[1]
  IC50: 249 nM
[2]
  concentration achievable in the mouse brains: 200 nM
[2]; nude, mouse, brain and plasma, single PO 6 mg/kg, between 1 and 6 hours after treatment, read-out: brain-to-plasma ratio of total concentrations
  Kp at 6 h: ~0.1
[2]; single PO 6 mg/kg, up to 6 hours after treatment
  plasma concentration: higher than 2 μmol/L
[3]
  IC50: 262 nM
[4]
  IC50: 17 nM
[5]; Glioma cell, GBM cells and GICs, 72 hours exposure, read-out: half maximal inhibitory concentration range of cells considered sensitive
  IC50: 150 to 265 nM
[5]; 9 glioma cell lines and 22 GIC lines, 72 hours, read-out: mean 50% inhibitory concentration, growth of glioma tumor cell lines and GICs
  IC50: < 250 nM
[6]
  inhibition of MLK1: greater than 50%
[7]
  viability at 0.2 µM: 63%
[8]
  cells with induced autophagy (GFP-LC3 puncta): 30%
[9]
  inhibition of a representative panel of 227 kinases: poorly inhibited
